Test results as given in patent publication US11591323B2, “Muscarinic agonists as non-steroidal and non-opioid analgesics and methods of use thereof” (Barry University, priority 2019, dated 2023).
“Also recorded” adds a separate entry of the source. Read-outs that look alike come from different tables or passages of the source.

Legend:
M1 muscarinic receptor = biological target: T1, M1 muscarinic receptor (Homo sapiens, UniProt P11229); test: stimulation of cAMP, M1 CHO cells (M1Gs); format: cell-based; parameters: host or cells: CHO cells, stably transfected
T1 sequence (P11229 1-460): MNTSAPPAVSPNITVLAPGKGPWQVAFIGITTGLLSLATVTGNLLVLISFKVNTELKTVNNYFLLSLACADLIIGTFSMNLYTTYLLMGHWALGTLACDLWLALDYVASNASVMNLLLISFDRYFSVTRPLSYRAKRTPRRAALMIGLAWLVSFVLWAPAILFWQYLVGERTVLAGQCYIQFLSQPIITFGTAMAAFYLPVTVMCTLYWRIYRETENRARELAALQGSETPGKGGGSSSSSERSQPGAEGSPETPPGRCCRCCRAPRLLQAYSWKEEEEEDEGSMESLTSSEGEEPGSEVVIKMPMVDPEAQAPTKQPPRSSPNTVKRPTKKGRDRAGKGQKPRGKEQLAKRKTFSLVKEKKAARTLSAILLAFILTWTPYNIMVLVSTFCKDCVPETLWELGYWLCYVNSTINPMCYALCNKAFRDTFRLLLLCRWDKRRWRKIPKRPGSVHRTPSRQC
Description: Since activation of phospholipase C (PLC) via M2 and M4 receptors is weak, cells were transferred with G15 G-protein to facilitate coupling.
To determine level of cAMP, cells in suspension were pre-incubated for 1 h with 0.4 μM [^3H]adenine, washed, and incubated for 10 min in the presence of isobutylmethylxanthine and 10 μM forskolin. […] Incubation was ended by addition of 0.2 ml of 2.5 M HCl to the samples. Samples were applied to alumina columns (1.5 g of alumina per column), washed with 2 ml ammonium acetate (pH=7.0) and eluted from columns with 4 ml ammonium acetate and measured by liquid scintillation spectrometry. […] The incubation was stopped by addition of 0.5 ml of chloroform methanol HCl mixture (2:1:0.1). After separation of water and organic phases, 0.6 ml of water phase was applied to Dowex columns (1.5 g of Dowex per column), washed by 20 ml of 60 mM ammonium formate/5 mM sodium borate buffer and eluted from columns with 4 ml of 1M ammonium formate/0.1 formic acid buffer and measured by liquid scintillation spectrometry.
(§1) Measurements of the production of cAMP and inositol phosphates: Levels of second messengers cAMP and inositol phosphates were determined in radiochemical chromatography assays as described previously. To determine level of cAMP, cells in suspension were pre-incubated for 1 h with 0.4 μM [^3H]adenine, washed, and incubated for 10 min in the presence of isobutylmethylxanthine and 10 μM forskolin. […] Incubation was ended by addition of 0.2 ml of 2.5 M HCl to the samples. Samples were applied to alumina columns (1.5 g of alumina per column), washed with 2 ml ammonium acetate (pH=7.0) and eluted from columns with 4 ml ammonium acetate and measured by liquid scintillation spectrometry. […] For this purpose, new CHO cell lines stably expressing promiscuous G15 G-protein and M2 or M4 receptor were generated by transfection with pCMV/hygro vector and hygromycin selection. To determine the rate of formation of inositol phosphates IPX, suspended cells were pre-incubated with 0.1 μM [^3H]myo-inositol for 60 min, washed, and incubated with 10 mM LiCl for 15 min. […] The incubation was stopped by addition of 0.5 ml of chloroform methanol HCl mixture (2:1:0.1). After separation of water and organic phases, 0.6 ml of water phase was applied to Dowex columns (1.5 g of Dowex per column), washed by 20 ml of 60 mM ammonium formate/5 mM sodium borate buffer and eluted from columns with 4 ml of 1M ammonium formate/0.1 formic acid buffer and measured by liquid scintillation spectrometry.
For bi-phasic response, curves were inhibitory and stimulatory phase were fitted separately. Operational Model of Functional Agonism
[formula] where y is functional response at concentration of tested compound x, EMAX is maximal response of the system, KA is equilibrium dissociation constant and nH is slope factor. Eq. 5 was fitted to data from functional experiments. Eq. 5 was fitted to data by the two-step procedure described earlier. […] In the second step, Eq. 5 with EMAX fixed to the value determined in the first step was fitted to individual experimental data sets. Relative Intrinsic Activity
Muscarinic receptors are also able to stimulate non-preferential signalling pathways.

cerebellum (M2 rich) = test: forskolin-stimulated cAMP in dissipated rat cerebellum; format: cell-based; details: in words
Description: Effects of compounds 6A and 7A were then measured ex vivo in dissipated rat tissues (FIG. 5). Accumulation of IPX was measured in dissipated brain cortex (rich in M1 & M3), submaxillary gland (M1 & M3), and ventral tegmental area (M5). Native tissues express about 10-times less muscarinic receptors than CHO cell lines. Accumulation of cAMP was measured in cerebellum (M2) and striatum (M4).
Rat dissipated tissues: Suspension of dissipated tissues from rat brain cortex, cerebellum, striatum, ventral tegmental area (VTA) and submaxillary glands was prepared as described previously in supplementary methods. Adult 8-weeks old male Wistar rats were scarified by cervical dislocation in accordance with current legislative and guidelines under permission of Czech Ministry of Agriculture 16OZ23113/2017-17214. Tissues were dissected immediately. Submaxillary glands were minced by scissors. Tissues were dispersed by incubation for 15 min at 37° C. in KHB supplemented with trypsin and trituration every 5 min. Large undissipated parts were removed by cell mesh. Then dissipated tissues were centrifuged 3 min at 250×g, re-suspended in KHB and centrifuged again to remove trypsin. Suspension of dissipated tissues was used immediately in experiments. Two submaxillary glands or about 400 mg of brain tissue was used a 96-sample assay.
as §1
To exclude the possibility that the observed effects of compounds 6A and 7A are the result of overexpression in the heterologous system, functional response to the compounds was measured ex vivo in dissipated native rat tissues. […] Accumulation of IPX was measured in brain cortex, submaxillary gland, and ventral tegmental area (VTA) as brain cortex and submaxillary glands are rich in M1 and in M3 receptors, respectively, and VTA is the only region expressing significant amount of M5 receptors. Accumulation of cAMP was measured in M2-rich cerebellum and M4-rich striatum.

[1] = M1Gs (↑cAMP), Table 8, relative to carbachol

Compound: C[N+]1(Cc2cccs2)CC=CCC1.[I-] (stereo not shown) [Compound 7A, 1-methyl-1-[(thiophen-2-yl)methyl]-1,2,3,6-tetrahydropyridin-1-ium iodide]
- RAi (M1 muscarinic receptor; [1]): 0
- Emax of inhibition of cAMP synthesis (cerebellum (M2 rich)): comparable to inhibition by carbachol
- forskolin-stimulated cAMP level (cerebellum (M2 rich)): only a decrease in cAMP level

Compound: O=C1CCCN1CC#CCN1CCCC1 [oxotremorine, reference compound]
- EC50 (M1 muscarinic receptor): 11.2 µM
- E′MAX (M1 muscarinic receptor): 1.77 ± 0.08 fold increase
- Kd (M1 muscarinic receptor): 15.8 µM
- RAi (M1 muscarinic receptor): 3.91 ± 0.22
- Δlog(τ/KA) (M1 muscarinic receptor): −0.59 ± 0.06
- τ (M1 muscarinic receptor): 0.38 ± 0.04

Compound: C[N+](C)(C)CCOC(N)=O [carbachol, reference compound]
- forskolin-stimulated cAMP level (cerebellum (M2 rich)): transient decrease in forskolin-stimulated cAMP level at nanomolar concentrations followed by an increase at micromolar concentrations; also recorded: transient decrease in forskolin-stimulated cAMP level at sub-micromolar concentrations followed by an increase at micromolar concentrations

Compound: C1=CCN(Cc2cccs2)CC1.Cl [Compound 6A, 1-[(thiophen-2-yl)methyl]-1,2,3,6-tetrahydropyridin-1-ium chloride]
- RAi (M1 muscarinic receptor; [1]): 0
- Emax of inhibition of cAMP synthesis (cerebellum (M2 rich)): comparable to inhibition by carbachol
- forskolin-stimulated cAMP level (cerebellum (M2 rich)): only a decrease in cAMP level
